The text below walks through data of publication PMC9687439 (Biology, 2022).

“Also recorded” adds a separate entry of the source. Where two headings read alike, the source gives them in different places. Ends that are not written are not given here. Bounds are passed on as bounds.

The test system of series [1] is Xanthomonas albilineans (Xa), strain CFBP2523. It counts as cell-based. On the set-up: key: +++: Clear plaque formation; ++: turbid plaque formation; +: highly turbid plaque formation; -: no plaque formation.
Series [2] relates to X. fastidiosa. The following applies: cited from earlier work.
The test system of series [3] is S. aureus. The following applies: cited from earlier work.
The subject of series [4] is E. coli. The following applies: cited from earlier work.
Series [5] has as its system Xylella fastidiosa subsp. pauca, strain De Donno. It counts as cell-based.
For series [6] the test system is unchanged. It counts as cell-based. This is another data set of the same source.
Series [7] deals with Xylella fastidiosa cells. Format: cell-based.
For series [8], the system named is Xylella fastidiosa cells. Format: cell-based. The source holds these as a separate data set.
The subject of series [9] is Xylella fastidiosa cells. It counts as cell-based. This is another data set of the same source.
Series [10] relates to Xylella fastidiosa biofilm. Format: cell-based. The following applies: 50 μM, 20 days, 28 °C.
Series [11] relates to Xylella fastidiosa subsp. pauca isolate De Donno in Nicotiana tabacum (var. Xanthi). Format: in vivo.
The subject of series [12] is Xf. The following applies: 1 mg/mL; cited from earlier work.
Series [13] relates to Xf strain 9a5c. The following applies: cited from earlier work.
The test system of series [14] is Nicotiana tabacum cv. Xanthi leaves. The following applies: in vivo.

Consider “RIVWVRIRRWFV-NH2 [RV12, RIJK2, synthetic antimicrobial peptide, …-NH2]”, for which the “growth inhibition of Xanthomonas albilineans (plaque formation)” value (from here on “growth inhibition”) in series [1] was “+++ and +”. Also, the “MIC (μM) X. fastidiosa” value in series [2] was 12.5 µM.
As for “GLLGLLGSVVSHVVPAIVGHF-NH2 [GF21, Maculatin 1.3, antimicrobial peptide, source frog]”, the “growth inhibition” value in [1] is “+++ and -”. For the same compound, the “MIC (μM) S. aureus” value in [3] was 6.2 µM. The “MIC (μM) E. coli” value in [4] is over 100 µM.
As to “IKWKKLLRAAKRIL-NH2 [IL14, DASamP2, synthetic antimicrobial peptide, […]-NH2]”, the “growth inhibition” value in series [1] is “+++”. Also, the “antimicrobial activity on Xf growth in antibiogram” value (shortened to “antimicrobial activity on Xf growth”) in [5] is recorded as “particularly highly active”. The “reductive activity against Xf cells (OD600, words)” value (shortened to “reductive activity against Xf cells”) in series [6] is “greatest activity”. In series [7], the “reduction in Xf cell viability (v-qPCR)” value is recorded as “twofold reduction in cell viability”. Besides, in [8], the “lytic activity by fluorescence microscopy (live green / dead red)” value (shortened to “lytic activity … (live green / dead red)”) is “moderate lytic activity”. For the same compound, the “morphological changes of Xf cells under TEM” value (“morphological changes” below) in [9] is “cytoplasmic condensation, loss of interior appearance, and alteration of the outer membrane”. The “effect on Xf biofilm formation (comparison, words)” value (from here on “effect on Xf biofilm formation”) in series [10] is “greater performance than KL29”. The “MIC (μM) S. aureus” value in series [3] was 6.2 µM. Moreover, in [4], the “MIC (μM) E. coli” value is 3.1 µM.
For Lycotoxin I [IL25], the “growth inhibition” value in series [1] is “+++ and -”. Moreover, in series [3], the “MIC (μM) S. aureus” value was 3.1 µM. Further, the “MIC (μM) E. coli” value in series [4] is 25 µM.
For `CC(=O)N[C@@H](CS)C(=O)O` [NAC, N-acetyl-L-cysteine], in [9] (50 μM, 1 h, room temperature, Xf 10^8 CFU/mL), the “morphological changes” value was “pore and protrusion formation and condensed cytoplasmic outflow from the outer membrane”. Besides, the “Xf disease symptoms in Xf-infected tobacco plants” value in series [11] (30 dpi, 100 μL of treatment at inoculation point) is “did not develop any symptoms”. The “Xf disease symptoms in Xf-infected tobacco leaf” value in series [11] (45 dpi, positive control treatment) is on record as “no symptoms”. In addition, in series [12], the “activity against Xf” value is “biocidal”. Besides, the “effect on biofilm biomass of Xf strain 9a5c” value in [13] is recorded as “reducing the biofilm biomass”.
Regarding “FFGKVLKLIRKIF-NH2 [FF13, DASamP1, synthetic antimicrobial peptide, …-NH2]”, the “growth inhibition” value in [1] is listed as “+++”. The “antimicrobial activity on Xf growth” value in series [5] was “particularly highly active”. Besides, in series [6], the “reductive activity against Xf cells” value is on record as “greatest activity”. In addition, the “reduction in Xf cell viability (v-qPCR)” value in series [7] is recorded as “twofold reduction in cell viability”. Besides, the “lytic activity … (live green / dead red)” value in series [8] is reported as “moderate lytic activity”. In addition, the “morphological changes” value in series [9] is “cytoplasmic condensation, loss of interior appearance, and alteration of the outer membrane”. Besides, the “effect on Xf biofilm formation” value in series [10] is reported as “greater performance than KL29”. For the same compound, the “MIC (μM) S. aureus” value in [3] was 3.1 µM. Also, in series [4], the “MIC (μM) E. coli” value was over 100 µM.
Consider “GFKDLLKGAAKALVKTVLF-NH2 [GF19, Ascaphin-8]”, for which the “growth inhibition” value in series [1] is given as “+++”. Further, in [5], the “antimicrobial activity on Xf growth” value was “particularly highly active; also recorded: distinct inhibitory activity”. For the same compound, the “reductive activity against Xf cells” value in series [6] is reported as “greatest activity”. Besides, the “reduction in viability of Xf compared to untreated cells (v-qPCR)” value in series [7] is given as “more-than-fourfold reduction in viability”. Also, the “lytic activity … (live green / dead red)” value in series [8] was “highest lytic activities”. Besides, the “morphological changes” value in series [9] was “damaged and fragmented cell walls, with complete destruction of the outer and inner bacterial membranes”. Besides, the “effect on Xf biofilm formation” value in [10] is listed as “interfered with biofilm formation in the same manner as NAC; also recorded: greater performance than KL29”. For the same compound, the “MIC (μM) S. aureus” value in series [3] is 3.1 µM. In series [14], the “diameter of halo-shaped tissue dissolving in tobacco leaves” value was 7 mm and the “hypersensitive reaction in tobacco leaves” value was “light hypersensitive reaction”. Besides, in [4], the “MIC (μM) E. coli” value is 12.5 µM.
For the compound “VQFRIRVRIVIRK-NH2 [VK13, 1036, synthetic antimicrobial peptide, […]-NH2]”, the “growth inhibition” value in series [1] is “+++ and +”. The “MIC (μM) X. fastidiosa” value in [2] was 12.5 µM.
As to “FFHHIFRGIVHVGKTIHRLVTG [FG22, Piscidin 1, antimicrobial peptide, source fish]”, in series [1], the “growth inhibition” value was “+++ and -”. The “MIC (μM) S. aureus” value in series [3] is 3.1 µM. In addition, the “MIC (μM) E. coli” value in series [4] is 12.5 µM.
